# Experimental data as given in US20030068663A1, “Method and kit for measuring skin inflammation or irritation” (priority 2001, published 2003).
# “And” between values parts separate entries of the source, which are not always exact repeats. Identical values can stand only once.
# How the values were obtained:
# [1] = tested on: PGE2 expressed on the skin surface; assay: PGE2 on skin surface 24 h after 4 h Hill Top chamber exposure, Sebutape collection, immunoassay; format: in vivo, human; settings: for Normalized levels of PGE2, Average: average of 10 panelists; for Normalized levels of PGE2: individual panelists 1-10
# Protocol: Assay Designs, Inc. PGE2 Enzyme Immunoassay:
# (§1) 1. Baseline (corresponding to an untreated control) levels of PGE2 contained in secretions present on the skin surface were measured along the lower volar forearms of test panelists by placing a mild adhesive-coated microporous plastic film, Sebutape® (Cuderm Corporation, Dallas, Tex.), on the skin with the adhesive side down, making direct contact with the skin. The Sebutape® was removed from the skin after 1 minute and then placed in a vial containing 500 μL saline. This Sebutape® collection process was repeated three more times with a 1-minute contact time for each Sebutape®. The collected samples were stored at −70 ° C. until analysis (described below).
# (§2) 2. Hill Top chambers® (Hill Top Research, Cincinnati, Ohio) containing 400 μL of the test fluid (deionized or tap water) were applied to the lower volar forearms of the test panelists. After 4 hours of exposure, the Hill Top chambers® were removed and the test sites were rinsed with tap water and patted dry.
# (§3) 3. Twenty four hours after the Hill Top chambers® were removed and the arm was rinsed and patted dry, skin secretions containing PGE2 expressed on the skin surface were collected using the Sebutape absorption method described previously in Step #1 above.
# The collected Sebutape® samples were analyzed using the following methods. After thawing, the samples were sonicated for 15 minutes and vortexed vigorously. The solutions, containing extracted proteins and eicosanoids, were analyzed for levels of PGE2 via immunoassay (Assay Designs High Sensitivity PGE2 Enzyme Immunoassay #93001) and levels of total protein using the bicinchoninic acid (BCA) protein assay (Kit #23225, Pierce Chemical Company, Rockford, Ill.).
# Four Sebutape® samples were taken from each test site. The measured levels of PGE2 (in pg/mL) were normalized against the total amount of protein (in μg/mL) extracted from each Sebutape® strip. The four normalized values were then averaged to determine the levels of PGE2 (in pg/μg) expressed for each test site. To account for person-to-person variability, PGE2 levels, for each panelist were further normalized relative to the levels of PGE2 measured for the untreated control.
# The method of Example 1 was extended to measure the level of inflammation or irritation elicited by a dilute solution (8% w/w in deionized water) of a mild facial cleanser (Neutrogena Fresh Foaming Cleanser, Neutrogena Corporation, Los Angeles, California) compared to that of deionized water.
# [2] = tested on: IL-1α expressed on the skin; assay: IL-1α on skin surface after Hill Top chamber exposure to SLS solutions, Sebutape collection, ELISA; format: in vivo, human
# Protocol: Endogen, Inc. Interleukin-1α ELISA
# as §1, §2, §3
# The level of irritation caused by dilute solutions of SLS as a function of SLS concentration was assessed using the method described in Example 1, with the exception that the level of Interleukin-1α(IL-1α) was used to assess the degree of irritation, rather than PGE2. The levels of IL-1α were measured via immunoassay (Human IL-1αKit #EH2-IL1a, Endogen, Inc., Woburn. Mass.). As with PGE2, the measured levels of IL-1α(in pg/mL) were normalized against the total amount of protein (in μg/mL) extracted from each Sebutape® strip. To account for person-to-person variability, IL-1α levels for each treatment site were further normalized using the baseline levels of IL-1α measured for the untreated control.
"Normalized levels of PGE2, Average ([1]; Example 3, cleanser as 8% w/w in deionized water) [dimensionless units]","Normalized levels of PGE2, Average ([1]; 4 h chamber on volar forearm, collected 24 h later) [dimensionless units]",Compound,"Normalized levels of PGE2 ([1]; Example 3, cleanser as 8% w/w in deionized water, 4 h chamber)","Normalized levels of PGE2 ([1]; 400 μL fluid, 4 h chamber on volar forearm, collected 24 h later, normalized to protein and untreated control)",Levels of IL-1α ([2]; 5 w/w % SLS in deionized water) [dimensionless units],Levels of IL-1α ([2]; 10 w/w % SLS in deionized water) [dimensionless units],Levels of IL-1α ([2]; 20 w/w % SLS in deionized water) [dimensionless units]
1.53,0.86,O [Deionized Water],1.49 dimensionless units and 2.12 dimensionless units and 1.25 dimensionless units and 1.60 dimensionless units and 1.77 dimensionless units and 1.45 dimensionless units and 1.98 dimensionless units and 1.48 dimensionless units and 1.30 dimensionless units and 0.83 dimensionless units,0.92 dimensionless units and 0.84 dimensionless units and 0.93 dimensionless units and 1.71 dimensionless units and 1.01 dimensionless units and 0.94 dimensionless units and 0.40 dimensionless units and 0.56 dimensionless units and 0.62 dimensionless units and 0.69 dimensionless units,–,–,–
–,–,"CCCCCCCCCCCCOS(=O)(=O)[O-].[Na+] [SLS, sodium lauryl sulfate]",–,–,2.83,2.71,1.00
